# Read-outs that look alike come from different tables or passages of the source.
# Details: for stability of pyrophosphate on storage: 1 week at 40° C.; for stability of pyrophosphate on storage / loss of pyrophosphate during sterilization: all buffers; for change in the pH of the solutions: after sterilization and after storage for a week at 40° C.; for loss of pyrophosphate during sterilization: pH 6 and lower; for Recoveries: unsterilized
# Method: Introduction: This study was designed to evaluate the stability of pyrophosphate salts with different buffers over a pH range from 4 to 10 during steam sterilization and after storage at 40° C. Two pyrophosphate salts and four buffers were obtained for the study. TRIS was added to all solutions as a pH stabilizer. Two of the solutions were also prepared without TRIS for comparison. The pH of the solutions was adjusted from pH 4-10 with 1N HCl or 1N NaOH. The solutions were sterilized at 121° C. for 40 minutes. Pyrophosphate concentration was determined before and after sterilization and after storage. The pH was also determined after sterilization and after storage.
# The salts tested were: • 1. Disodium Pyrophosphate (Na2H2P2O7) • 2. Tetrapotassium Pyrophosphate (K4P2O7)
# The study was performed using the sodium and potassium salts of pyrophosphate with the buffers shown below. Solutions were not prepared with bicarbonate below pH 7 because bicarbonate will decompose at a lower pH. • 1. Sodium Lactate • 2. Sodium Bicarbonate • 3. Sodium Citrate • 4. Sodium Pyruvate
# The concentrations of the solution components are shown below in Table 2.
Compound,stability of pyrophosphate on storage (pH 7-10),"stability of pyrophosphate on storage (pH 7-10, except lactate without TRIS at pH 7)",change in the pH of the solutions,loss of pyrophosphate during sterilization,change in pH after sterilization (all solutions),"pH change after storage (storage for up to two months at 40° C., all solutions)",Recoveries (all buffers at pH 6 and higher),"Recoveries (buffers other than citrate, pH 4 and 5)",stability during sterilization (with bicarbonate at pH 9-10),stability during sterilization (pH 9),pH change after storage (storage for 1 week)
O=P([O-])([O-])OP(=O)(O)O.[Na+].[Na+] [Disodium Pyrophosphate],remained unchanged,stable,no change in the pH,substantial loss of pyrophosphate,no change in pH,less than 0.1 pH unit,≥ 95%,90-102%,most stable,,
O=P([O-])([O-])OP(=O)([O-])[O-].[K+].[K+].[K+].[K+] [Tetrapotassium Pyrophosphate],,,no change in the pH,substantial loss of pyrophosphate,no change in pH,,,,,most stable,less than 0.1 pH unit
